The source of these data is US20260265233A1, “BENZOTHIOPHENE DERIVATIVES AS RXFP1 AGONISTS” (BRISTOL-MYERS SQUIBB COMPANY, priority 2021, published 2026).

The assay concerns the target T1, human RXFP1 (Homo sapiens, UniProt Q9HBX9).
T1 construct: expressed in transfected cells
T1 sequence (Q9HBX9 1-757): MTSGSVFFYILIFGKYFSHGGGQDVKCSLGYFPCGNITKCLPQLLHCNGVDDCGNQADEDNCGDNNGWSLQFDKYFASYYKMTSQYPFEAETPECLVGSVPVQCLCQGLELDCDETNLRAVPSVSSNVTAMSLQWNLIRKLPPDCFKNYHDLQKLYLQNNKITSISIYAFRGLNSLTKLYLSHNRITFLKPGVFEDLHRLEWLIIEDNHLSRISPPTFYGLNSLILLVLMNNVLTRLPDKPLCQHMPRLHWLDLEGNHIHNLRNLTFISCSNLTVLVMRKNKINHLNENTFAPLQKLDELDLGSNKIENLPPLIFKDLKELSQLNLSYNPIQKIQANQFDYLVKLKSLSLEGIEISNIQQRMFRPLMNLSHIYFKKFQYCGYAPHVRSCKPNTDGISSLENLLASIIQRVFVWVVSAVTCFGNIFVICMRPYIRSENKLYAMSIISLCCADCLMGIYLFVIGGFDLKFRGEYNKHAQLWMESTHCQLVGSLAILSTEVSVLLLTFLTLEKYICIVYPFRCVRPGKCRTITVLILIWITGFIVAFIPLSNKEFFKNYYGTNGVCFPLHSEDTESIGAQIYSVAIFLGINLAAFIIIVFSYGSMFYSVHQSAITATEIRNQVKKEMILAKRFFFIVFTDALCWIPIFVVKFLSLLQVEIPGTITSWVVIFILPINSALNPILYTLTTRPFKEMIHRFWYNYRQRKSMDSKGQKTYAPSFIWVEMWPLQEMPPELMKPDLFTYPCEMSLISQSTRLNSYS
The assay is described as follows: hRXFP1 HEK293 cAMP assay (HTRF). It is filed as cell-based. Particulars: HEK293 cells stably expressing human RXFP1; 30 min at rt; intracellular cAMP by HTRF. Here is the method: RXFP1 Cyclic Adenosine Monophosphate (cAMP) Assays. Human embryonic kidney cells 293 (HEK293) cells and HEK293 cells stably expressing human RXFP1, were cultured in MEM medium supplemented with 10% qualified FBS, and 300 μg/ml hygromycin (Life Technologies). Cells were dissociated and suspended in assay buffer. The assay buffer was HBSS buffer (with calcium and magnesium) containing 20 mM HEPES, 0.05% BSA, and 0.5 mM IBMX. Cells (3000 cells per well, except 1500 cell per well for HEK293 cells stably expressing human RXFP1) were added to 384-well Proxiplates (Perkin-Elmer). Cells were immediately treated with test compounds in DMSO (2% final) at final concentrations in the range of 0.010 nM to 50 μM. Cells were incubated for 30 min at rt. The level of intracellular cAMP was determined using the HTRF HiRange cAMP assay reagent kit (Cisbio) according to manufacturer's instructions. Solutions of cryptate conjugated anti-cAMP and d2 fluorophore-labelled cAMP were made in a supplied lysis buffer separately. Upon completion of the reaction, the cells were lysed with equal volume of the d2-cAMP solution and anti-cAMP solution. After a 1 h rt incubation, time-resolved fluorescence intensity was measured using the Envision (Perkin-Elmer) at 400 nm excitation and dual emission at 590 nm and 665 nm. A calibration curve was constructed with an external cAMP standard at concentrations ranging from 2.7 μM to 0.1 pM by plotting the fluorescent intensity ratio from 665 nm emission to the intensity from the 590 nm emission against cAMP concentrations. The potency and activity of a compound to […] cAMP production was then determined by fitting to a 4-parametric logistic equation from a plot of cAMP level versus compound concentrations.
The examples disclosed below were tested in the human RXFP1 (hRXFP1) HEK293 cAMP assay described above and found to have agonist activity.
(Changes in cAMP serve as a functional read-out for many G protein-coupled receptors.)
Consider `COc1ccc(C2=NOC3CC(NC(=O)C(C)(C)O)CC23)cc1C(=O)Nc1c(C(=O)Nc2ccc(F)c(C(F)(F)F)c2)sc2cc(C(F)(F)F)ccc12` (centres unmarked) [Example 260, N-[4-fluoro-3-(trifluoromethyl)phenyl]-3-{5-[5-(2-hydroxy-2-methyl-propanamido)-3aH,4H,5H,6H, 6aH-cyclopenta[d] [1,2]oxazol-3-yl]-2-methoxy-benzamido}-6-(trifluoromethyl)-1-benzothiophene-2-carboxamide], for which the EC50 (commonly the concentration at which the effect is half-maximal) came to 1310 nM.
In turn, `COc1ccc(C#CCO)cc1C(=O)Nc1c(C(=O)Nc2ccc(F)c(C(F)(F)F)c2)sc2cc(C(F)(F)F)ccc12` [Example 42, N-(4-fluoro-3-(trifluoromethyl)phenyl)-3-(5-(3-hydroxyprop-1-yn-1-yl)-2-methoxybenzamido)-6-(trifluoromethyl)benzo[b]thiophene-2-carboxamide] displayed an EC50 of 467 nM.
For `COc1ccc(N2CCC3(CN(CCS(C)(=O)=O)C3)C2)cc1C(=O)Nc1c(C(=O)Nc2ccc(F)c(C(F)(F)F)c2)sc2cc(C(F)(F)F)ccc12` [Example 194, N-(4-fluoro-3-(trifluoromethyl)phenyl)-3-(2-methoxy-5-(2-(2-(methylsulfonyl)ethyl)-2,6-diazaspiro[3.4]octan-6-yl)benzamido)-6-(trifluoromethyl) benzo[b] thiophene-2-carboxamide], the midpoint of the response, the EC50, lay at 746 nM.
Then `COc1ccc(C(=O)NCCCO)cc1C(=O)Nc1c(C(=O)Nc2ccc(F)c(C(F)(F)F)c2)sc2cc(C(F)(F)F)ccc12` [Example 216, N3-(2-((4-fluoro-3-(trifluoromethyl)phenyl)carbamoyl)-6-(trifluoromethyl)benzo[b]thiophen-3-yl)-N1-(3-hydroxypropyl)-4-methoxy-isophthalamide], with 3490 nM; and `COc1ccc(C(=O)N2CC3(COC3)C2)cc1C(=O)Nc1c(C(=O)Nc2ccc(F)c(C(F)(F)F)c2)sc2cc(C(F)(F)F)ccc12` [Example 181, N-(4-fluoro-3-(trifluoromethyl)phenyl)-3-(2-methoxy-5-(2-oxa-6-azaspiro[3.3]heptane-6-carbonyl)benzamido)-6-(trifluoromethyl) benzo[b] thiophene-2-carboxamide], with 544 nM.
As for `COc1ccc(-c2ccc(N3CCOCC3)nc2)cc1C(=O)Nc1c(C(=O)Nc2ccc(F)c(C(F)(F)F)c2)sc2cc(C(F)(F)F)ccc12` [Example 127, N-(4-fluoro-3-(trifluoromethyl)phenyl)-3-(2-methoxy-5-(6-morpholino-pyridin-3-yl)benzamido)-6-(trifluoromethyl) benzo[b] thiophene-2-carboxamide], the figure is 254 nM.
`COc1ccc(C(=O)N2CC(C)(C)C2)cc1C(=O)Nc1c(C(=O)Nc2ccc(F)c(C(F)(F)F)c2)sc2cc(Cl)ncc12` [Example 240, 6-chloro-3-(5-(3,3-dimethyl-azetidine-1-carbonyl)-2-methoxy-benzamido)-N-(4-fluoro-3-(trifluoromethyl)phenyl)thieno [3,2-c]pyridine-2-carboxamide] returned an EC50 of 3300 nM. Against the preceding compound, the EC50 is about 13-fold higher.
With `COc1ccc(C2=NOC3CC(C(C)(C)O)CC23)cc1C(=O)Nc1c(C(=O)Nc2ccc(F)c(C(F)(F)F)c2)sc2cc(C(F)(F)F)ccc12` (single isomer, unassigned) [Example 56, N-(4-fluoro-3-(trifluoromethyl)phenyl)-3-(5-(5-(2-hydroxypropan-2-yl)-3a, 5,6,6a-tetrahydro-4H-cyclopenta[d]isoxazol-3-yl)-2-methoxybenzamido)-6-(trifluoromethyl)benzo[b]thiophene-2-carboxamide], the EC50 is 9.5 nM. This EC50 is about 350-fold lower than that of the compound before.
Compound `COc1ccc(N2CCC3(C2)CN(C2COC2)C3)cc1C(=O)Nc1c(C(=O)Nc2ccc(F)c(C(F)(F)F)c2)sc2cc(C(F)(F)F)ccc12` [Example 208, N-(4-fluoro-3-(trifluoromethyl)phenyl)-3-(2-methoxy-5-(2-(oxetan-3-yl)-2,6-diazaspiro[3.4]octan-6-yl)benzamido)-6-(trifluoromethyl) benzo[b] thiophene-2-carboxamide] yielded an EC50 of 1480 nM.
Compound `COc1ccc(C(=O)N2CCC3(CC2)COC3)cc1C(=O)Nc1c(C(=O)Nc2ccc(F)c(C(F)(F)F)c2)sc2cc(C(F)(F)F)ccc12` [Example 222, N-(4-fluoro-3-(trifluoromethyl)phenyl)-3-(2-methoxy-5-(2-oxa-7-azaspiro[3.5]nonane-7-carbonyl)benzamido)-6-(trifluoromethyl) benzo[b] thiophene-2-carboxamide] gave an EC50 of 1610 nM. This EC50 and that of the compound before are within 1.5-fold of each other.
`COc1ccc(C2CCN(C(=O)C(C)(C)O)C2)cc1C(=O)Nc1c(C(=O)Nc2ccc(F)c(C(F)(F)F)c2)sc2cc(C(F)(F)F)ccc12` (centres unmarked) [Example 151, N-(4-fluoro-3-(trifluoromethyl)phenyl)-3-(5-(1-(2-hydroxy-2-methylpropanoyl)pyrrolidin-3-yl)-2-methoxy-benzamido)-6-(trifluoromethyl) benzo[b] thiophene-2-carboxamide] displayed an EC50 of 208 nM. Compared with the last compound, the EC50 is about 7.7-fold lower.
`COc1ccc(C2CCCN(C(=O)CN)C2)cc1C(=O)Nc1c(C(=O)Nc2ccc(F)c(C(F)(F)F)c2)sc2cc(C(F)(F)F)ccc12` (centres unmarked) [Example 96, N-(4-fluoro-3-(trifluoromethyl)phenyl)-3-(5-(1-glycylpiperidin-3-yl)-2-methoxy-benzamido)-6-(trifluoromethyl) benzo[b] thiophene-2-carboxamide] had an EC50 of 324 nM.
Take `COc1ccc(C2=NOC3CNCC23)cc1C(=O)Nc1c(C(=O)Nc2ccc(F)c(C(F)(F)F)c2)sc2cc(C(F)(F)F)ccc12` (centres unmarked) [Example 247, N-(4-fluoro-3-(trifluoromethyl)phenyl)-3-(2-methoxy-5-(3a,5,6,6a-tetrahydro-4H-pyrrolo[3,4-d]isoxazol-3-yl)benzamido)-6-(trifluoromethyl) benzo[b] thiophene-2-carboxamide]: the EC50 is 531 nM.
On to `COc1ccc(C2=NOC3CC(NC(=O)CO)CC23)cc1C(=O)Nc1c(C(=O)Nc2ccc(F)c(C(F)(F)F)c2)sc2cc(C(F)(F)F)ccc12` (single isomer, unassigned) [Example 264, N-[4-fluoro-3-(trifluoromethyl)phenyl]-3-{5-[5-(2-hydroxyacetamido)-3aH,4H,5H,6H, 6aH-cyclopenta[d] [1,2]oxazol-3-yl]-2-methoxy-benzamido}-6-(trifluoromethyl)-1-benzothiophene-2-carboxamide], for which a half-maximal response (EC50) required 3140 nM.
As for “2-(3′-((2-((4-fluoro-3-(trifluoromethyl) phenyl) carbamoyl)-6-(trifluoromethyl) benzo[b]thiophen-3-yl) carbamoyl)-4′-methoxy-[1, 1′-biphenyl]-3-yl)-2-(tetrahydro-2H-pyran-4-carboxamido) acetic acid [Example 26]”, a half-maximal response (EC50) required 153 nM.
As for `COc1ccc(C2CCCN(CC(N)=O)C2)cc1C(=O)Nc1c(C(=O)Nc2ccc(F)c(C(F)(F)F)c2)sc2cc(C(F)(F)F)ccc12` (centres unmarked) [Example 83, 3-(5-(1-(2-amino-2-oxoethyl)piperidin-3-yl)-2-methoxy-benzamido)-N-(4-fluoro-3-(trifluoromethyl)phenyl)-6-(trifluoromethyl) benzo[b] thiophene-2-carboxamide], the figure is 608 nM.
As for `COc1ccc(C2CCN(C(=O)C3CC3(F)F)C2)cc1C(=O)Nc1c(C(=O)Nc2ccc(F)c(C(F)(F)F)c2)sc2cc(C(F)(F)F)ccc12` (centres unmarked) [Example 134, 3-(5-(1-(2,2-difluorocyclo-propane-1-carbonyl)pyrrolidin-3-yl)-2-methoxy-benzamido)-N-(4-fluoro-3-(trifluoromethyl)phenyl)-6-(trifluoromethyl) benzo[b] thiophene-2-carboxamide], the figure is 634 nM.
